Source: patent US4605642A, “CRF antagonists” (The Salk Institute for Biological Studies, priority 1984, dated 1986)
Square brackets hold non-standard residues; d marks the D form. Peptide text beside a SMILES is read from it. Nle = CCCC[C@H](N)C(=O)O

Key:
[1] = test system: secretion of β-endorphin by cultured rat pituitary cells; experiment: Blocking of β-endorphin (β-END-LI) secretion by cultured rat pituitary cells; format: cell-based; settings: general procedure set forth in Example III
Protocol: (§1) The effectiveness of synthetic CRF antagonists to block the secretion of ACTH and β-endorphin by cultured rat pituitary cells is measured using the procedure as generally set forth in Vale et al., Endocrinology, 91, 562 (1972). In vivo testing is carried out using the general procedure set forth in C. Rivier et al., Science, 218, 377 (1982).

[2] = test system: secretion of ACTH by cultured rat pituitary cells; experiment: Blocking of oCRF-stimulated ACTH secretion by cultured rat pituitary cells; format: cell-based; settings: for inhibition of the secretion of ACTH (in words): general procedure set forth in Example III
Protocol: as §1

ACTH secretion = ACTH secretion in vivo after intravenous hCRF in rat preparations
Protocol: (§2) Plasma levels of ACTH and β-END-LI are elevated for at least 5-20 minutes following the intraveneous administration of hCRF to nembutal-anesthesized male rats and to quiescent male or female rats with indwelling intravenous cannulae.

β-END-LI secretion = β-END-LI secretion in vivo after intravenous hCRF in rat preparations
Protocol: as §2

[3] = Blood pressure lowering by antagonist; format: in vivo; settings: general procedure set forth in Example III
[4] = test system: GRF-stimulated secretion of GH; experiment: Specificity: GRF-stimulated secretion of GH; format: cell-based; settings: specificity of inhibition
[5] = test system: TRF-stimulated secretion of TSH and prolactin; experiment: Specificity: TRF-stimulated secretion of TSH and prolactin; format: cell-based; settings: specificity of inhibition
spontaneous ACTH release = experiment: Spontaneous ACTH release by adrenalectomized rats; format: in vivo, rat; settings: iv 3 mg/kg BW (2.7 nmole)
Protocol: as §1
The in vivo effect of CRF antagonists is tested on the spontaneous ACTH release by adrenalectomized rats.

[6] = test system: GnRH-stimulated secretion of LH and FSH; experiment: Specificity: GnRH-stimulated secretion of LH and FSH; format: cell-based; settings: specificity of inhibition
[7] = intravenous, nembutal-anesthetized male rats and quiescent cannulated male or female rats

Row | Molecule | inhibition of the secretion of β-END-LI (in words) [1] | inhibition of the secretion of ACTH (in words) [2] | further results
1 | CCCC[C@H](NC(=O)[C@H](CCC(=O)O)NC(=O)[C@H](CC(C)C)NC(=O)[C@@H](NC(=O)[C@H](CCC(=O)O)NC(=O)[C@H](CCCNC(=N)N)NC(=O)[C@H](CC(C)C)NC(=O)[C@H](CC(C)C)NC(=O)[C@H](Cc1c[nH]cn1)NC(=O)[C@H](Cc1ccccc1)NC(=O)[C@@H](NC(=O)[C@H](CC(C)C)NC(=O)[C@@H](N)CC(=O)O)[C@@H](C)O)C(C)C)C(=O)N[C@@H](C)C(=O)N[C@@H](CCCNC(=N)N)C(=O)N[C@@H](C)C(=O)N[C@@H](CCC(=O)O)C(=O)N[C@@H](CCC(N)=O)C(=O)N[C@@H](CC(C)C)C(=O)N[C@@H](C)C(=O)N[C@@H](CCC(N)=O)C(=O)N[C@@H](CCC(N)=O)C(=O)N[C@@H](C)C(=O)N[C@@H](Cc1ccc(O)cc1)C(=O)N[C@@H](CO)C(=O)N[C@@H](CC(N)=O)C(=O)N[C@@H](CCCNC(=N)N)C(=O)N[C@@H](CCCCN)C(=O)N[C@@H](CC(C)C)C(=O)N[C@@H](CCSC)C(=O)N[C@@H](CCC(=O)O)C(=O)N[C@H](C(=O)N[C@H](C(N)=O)[C@@H](C)CC)[C@@H](C)CC [[Nle^21, Tyr^32]-hCRF(9-41)] (H-DLTFHLLREVLE[Nle]ARAEQLAQQAYSNRKLMEII-NH2) | inhibits the secretion | inhibits the secretion | 
2 | CC[C@H](C)[C@H](NC(=O)[C@@H](NC(=O)[C@H](CCC(=O)O)NC(=O)[C@H](CCSC)NC(=O)[C@H](CC(C)C)NC(=O)[C@H](CCCCN)NC(=O)[C@H](CCCNC(=N)N)NC(=O)[C@H](CC(N)=O)NC(=O)[C@H](CO)NC(=O)[C@H](Cc1c[nH]cn1)NC(=O)[C@H](C)NC(=O)[C@H](CCC(N)=O)NC(=O)[C@H](CCC(N)=O)NC(=O)[C@H](C)NC(=O)[C@H](CC(C)C)NC(=O)[C@H](CCC(N)=O)NC(=O)[C@H](CCC(=O)O)NC(=O)[C@H](C)NC(=O)[C@H](CCCNC(=N)N)NC(=O)[C@H](C)NC(=O)[C@H](CCSC)NC(=O)[C@H](CCC(=O)O)NC(=O)[C@H](CC(C)C)NC(=O)[C@@H](NC(=O)[C@H](CCC(=O)O)NC(=O)[C@H](CCCNC(=N)N)NC(=O)[C@H](CC(C)C)NC(=O)[C@H](CC(C)C)NC(=O)[C@H](Cc1c[nH]cn1)NC(=O)[C@H](Cc1ccccc1)NC(=O)[C@@H](NC(=O)[C@H](CC(C)C)NC(=O)[C@H](CC(=O)O)NC(=O)[C@H](CC(C)C)NC(=O)[C@H](CO)NC(=O)[C@@H](NC(=O)[C@@H]1CCCN1C(=O)[C@@H]1CCCN1C(=O)[C@H](CCC(=O)O)NC(=O)[C@H](CCC(=O)O)NC(=O)[C@@H](N)CO)[C@@H](C)CC)[C@@H](C)O)C(C)C)[C@@H](C)CC)C(N)=O [hCRF] |  |  | time for which plasma levels of ACTH are elevated (ACTH secretion; [7]): 5 to 20 min; stimulation of ACTH secretion in vivo (ACTH secretion; several rat preparations): powerful stimulator; time for which plasma levels of β-END-LI are elevated (β-END-LI secretion; [7]): 5 to 20 min; stimulation of β-END-LI secretion in vivo (β-END-LI secretion; several rat preparations): powerful stimulator
3 | Ac-DLTFHLLREVLEMARAEQLAQQAHSNRKLMDII-NH2 [[Acetyl-Asp^9, Asp^39]-hCRF(9-41)] | inhibits the secretion | inhibits the secretion | 
4 | H-Asp-CML-Thr-Leu-Glu-CML-CML-Arg-Glu-Met-CML-Glu-Met-CMA-Lys-Ala-Glu-Gln- CML-Ala-Glu-Gln-Ala-CMA-CML-Asn-Arg-Leu-CML-Leu-Glu-Glu-CMA-NH2 | inhibits the secretion | inhibits the secretion | 
5 | H-Asp-CML-Thr-Leu-Glu-CML-Leu-Arg-Glu-Met-CML-Glu-Met-Ala-Lys-Ala-Glu-Gln- CML-Ala-Glu-Gln-Ala-Ala-CML-Asn-Arg-Leu-CML-Leu-Glu-Glu-Ala-NH2 [[CML^10,14,19,27,33,38]-AHC(9-41)] | inhibits the secretion | inhibits the secretion | lowering of blood pressure [3]: very significant lowering of blood pressure
6 | H-DLSLELLRKMIEIAKQEKEKQQAANNRLLMDTI-NH2 [[Ala^21, Met^37]-sauvagine(8-40)] | inhibits the secretion | inhibits the secretion | 
7 | H-DLSLELLRKMIEIEKQEKLKQQAANNRLLMDTI-NH2 [[Leu^26, Met^37]-sauvagine(8-40)] | inhibits the secretion | inhibits the secretion | 
8 | H-DLTFALLREMLEMAKAEQEAEQAALNRLLLEEA-NH2 [[Ala^13]-AHC(9-41)] | inhibits the secretion | inhibits the secretion | 
9 | H-DLTFELLREVLEVARAEQLAQQAHSNRKLMEII-NH2 [[Glu^13, Val^21]-hCRF(9-41)] | inhibits the secretion | inhibits the secretion | 
10 | H-DLTFHLLREMLEMAKAEQEAEQAALNRLLLEEA-NH2 [AHC (9-41)] |  |  | effect on the GRF-stimulated secretion of GH [4]: no effect; effect on the TRF-stimulated secretion of TSH and prolactin [5]: no effect; plasma ACTH levels (spontaneous ACTH release) (spontaneous ACTH release): marked decrease; IC50 ([2]; cultured rat pituitary cells, 1 nM oCRF, five independent experiments, read-out: concentration that blocks the secretion of ACTH due to 1 nM oCRF by 50%): 197 ± 72 nM; type of inhibition of oCRF-stimulated ACTH secretion ([2]; several concentrations of oCRF and of antagonist, constant oCRF 1 nM): competitive inhibition; potency as CRF antagonist (in words) ([2]; test not stated at the place): particularly potent; effect on the GnRH-stimulated secretion of LH and FSH [6]: no effect
11 | H-DLTFHLLREVAEMTRAEQLAQQAHSNRKLMEII-NH2 [[Ala^19, Thr^22]-hCRF(9-41)] | inhibits the secretion | inhibits the secretion | 
12 | H-DLTFHLLRNMIEMARNENQREQAGLNRKYLDEV-NH2 [Carp Urotensin I(9-41)] | inhibits the secretion | inhibits the secretion | 
13 | H-DLTLELLREMLEMAKAEQEAEQAALNRLLLEEA-NH2 [[Leu^12, Glu^13]-AHC(9-41)] | inhibits the secretion | inhibits the secretion | 
14 | H-IDLTFHLLRNMIEMARNENQREQAGLNRKYLDEV-NH2 [Carp Urotensin I(8-41)] | inhibits the secretion | inhibits the secretion | 
15 | H-LDLTFHLLREVLEMAKAEQLAQQAHSNRKLLEII-NH2 [[Lys^23, Leu^38]-hCRF(8-41)] | inhibits the secretion | inhibits the secretion | 
16 | H-LDLTLELLREMLEMEKAEKEAEQAALNRLLLEEA-NH2 [[Glu^13,22, Leu^12, Lys^26]-AHC(8-41)] | inhibits the secretion | inhibits the secretion | 
17 | H-LSLELLRKMIEARKQEKEKQQAANNRLLLDII-NH2 | inhibits the secretion | inhibits the secretion | 
